Reference: patent US20090291999A1, “Agent Exhibiting a Neurotropic, Neuromodulator, Cerebrovascular and Anti-Stroke Activity” (AKHAPKINA, Valentina Ivanovna, priority 2006, published 2009)
Marks after values point to notes of the source that are not given here.

How the values were obtained:
[1] = system: rats with hemorrhagic stroke (intracerebral post-traumatic hematoma); test: Hemorrhagic stroke model: conditioned reflex of passive avoidance (CRPA); conditions: for Latent time of entering into a dark chamber / Number of rats which did not entered a dark chamber: HS rats, 100 mg/Kg
Method: (§1) Experiments have been conducted on white outbred male rats having weights from 200 to 250 grams. The rats have been held in vivarium conditions with free access to meals and water, under the natural change of days and nights. For the purpose of generating hemorrhagic stroke (HS) in rats narcotized with chloral hydrate (400 mg/Kg) stereotaxic craniotomy was conducted and then brain tissue in the capsula interna area was destructed with a mandarin knife, and blood (0.02 to 0.03 mL) taken under a rat tongue was injected into the place of destruction. Thus, local autohemorrhagic bilateral stroke was generated in the capsula interna area (diameter 2 mm, depth 3 mm) without damaging the above-located brain formations and neocortex. Falsely operated animals and animals with HS fed with a saline were used as the control animals. Intragastric administration of Phenotropil at a dose of 100 mg/Kg was performed with the use of a special tube in 5 hours after the operation and then daily for 7 days at the time of the day±3 minutes.
(§2) The Phenotropil influence was evaluated for survivability of the animals, for the neurologic deficit level on the McGrow stroke-index scale in the modification of I. V. Gannushkina (1977) and in the Rotarod test, for muscular tonus maintenance in the test of chinning up on a horizontal bar, for orientation and exploration behavior in the open-field test. Study of cognitive functions was conducted on a standard unit for conditioned reflex of passive avoidance (CRPA). A test for CRPA repetition (for maintenance of a memory trail) was conducted in 24 hours after training as well as on the 3rd, 7th and 14th days after the operation. The latent time of the first entering in a dark chamber was registered when the burrow reflex maintenance was evaluated.

[2] = Metabolism and excretion in the organism; conditions: in vivo
Toxicity (LD30) = conditions: in vivo
[3] = system: rats with hemorrhagic stroke (intracerebral post-traumatic hematoma); test: Hemorrhagic stroke model: neurologic deficit on McGrow's scale; conditions: HS rats, 100 mg/Kg internally; 1 day after operation
Method: as §1, §2

[4] = system: rats with hemorrhagic stroke (intracerebral post-traumatic hematoma); test: Hemorrhagic stroke model: survivability of animals
Method: (§3) Experiments have been conducted on white outbred male rats having weights from 200 to 250 grams. The rats have been held in vivarium conditions with free access to meals and water, under the natural change of days and nights. For the purpose of generating hemorrhagic stroke (HS) in rats narcotized with chloral hydrate (400 mg/Kg) stereotaxic craniotomy was conducted and then brain tissue in the capsula interna area was destructed with a mandarin knife, and blood (0.02 to 0.03 mL) taken under a rat tongue was injected into the place of destruction. Thus, local autohemorrhagic bilateral stroke was generated in the capsula interna area (diameter 2 mm, depth 3 mm) without damaging the above-located brain formations and neocortex. Falsely operated animals and animals with HS fed with a saline were used as the control animals. […]
The Phenotropil influence was evaluated for survivability of the animals, for the neurologic deficit level on the McGrow stroke-index scale in the modification of I. V. Gannushkina (1977) and in the Rotarod test, for muscular tonus maintenance in the test of chinning up on a horizontal bar, for orientation and exploration behavior in the open-field test. […] The latent time of the first entering in a dark chamber was registered when the burrow reflex maintenance was evaluated.

[5] = system: rats with hemorrhagic stroke (intracerebral post-traumatic hematoma); test: Hemorrhagic stroke model: open-field orientation-and-exploratory behavior; conditions: for Exploration of holes / Horizontal motion activity / Total index / Vertical motion activity: HS + Phenotropil
Method: as §1, §2

[6] = system: rats with hemorrhagic stroke (intracerebral post-traumatic hematoma); test: Hemorrhagic stroke model: burrow reflex; conditions: HS rats, one-time administration; 1 day after operation
Method: as §3
The Phenotropil influence was evaluated for survivability of the animals, for the neurologic deficit level on the McGrow stroke-index scale in the modification of I. V. Gannushkina (1977) and in the Rotarod test, for muscular tonus maintenance in the test of chinning up on a horizontal bar, for orientation and exploration behavior in the open-field test. […] The latent time of the first entering in a dark chamber was registered when the burrow reflex maintenance was evaluated. […]

[7] = repetition of the CRPA in 3 days
[8] = repetition of the CRPA in 7 days
[9] = repetition of the CRPA in 14 days

Compound: NC(=O)CN1CC(c2ccccc2)CC1=O (centres unmarked) [Phenotropil, N-carbomoyl-methyl-4-phenyl-2-pyrrolidon]
- Increase of the latent time of entering the dark chamber in comparison to the HS-group ([1]; 100 mg/Kg one-time administration 5 hours after operation, CRPA one day after training): 48%
- Increase of the number of animals with maintained memory in comparison to the HS-group ([1]; 100 mg/Kg one-time administration 5 hours after operation, after one day): 60%
- Latent time of entering into a dark chamber ([1]; repetition of the CRPA in 24 hours after training): 101.1 ± 24.2 s
- Number of rats which did not entered a dark chamber ([1]; repetition of the CRPA in 24 hours after training, 100 mg/kg): 40%
- Latent time of entering into a dark chamber [1, 7]: 98.3 ± 18.7 s
- Number of rats which did not entered a dark chamber [1, 7]: 40** %
- Latent time of entering into a dark chamber [1, 8]: 75.2 ± 24.1 s
- Number of rats which did not entered a dark chamber [1, 8]: 30** %
- Latent time of entering into a dark chamber [1, 9]: 83.2 ± 26.7 s
- Number of rats which did not entered a dark chamber [1, 9]: 40** %
- Metabolism in the organism [2]: not metabolized in the organism and goes out of it in the unchanged form
- LD30 (Toxicity (LD30)): 800 mg/kg
- Number of animals with flabbiness, slowness of motions [3]: 50%
- Number of animals with paresis of 1-4 limbs [3]: 30%
- Number of animals with weakness of limbs [3]: 40* %
- Effect on death of the animals ([4]; 100 mg/Kg once a day for 7 days, 14 days of observation): completely prevented death of the animals
- Cases in which death of animals was prevented ([4]; hemorrhagic stroke, 100 mg/Kg): 100%
- Exploration of holes ([5]; 1st day after operation): 1.3 ± 0.5
- Horizontal motion activity ([5]; 1st day after operation): 8.8 ± 3.5
- Total index ([5]; 1st day after operation): 14.5 ± 5.5
- Vertical motion activity ([5]; 1st day after operation): 4.4 ± 2.1
- Exploration of holes ([5]; 3rd day after operation): 1.9 ± 0.7
- Horizontal motion activity ([5]; 3rd day after operation): 15.2 ± 5.4
- Total index ([5]; 3rd day after operation): 21.6 ± 6.1
- Vertical motion activity ([5]; 3rd day after operation): 4.5 ± 1.5
- Exploration of holes ([5]; 7th day after operation): 4.6 ± 1.3
- Horizontal motion activity ([5]; 7th day after operation): 20.9 ± 4.1
- Total index ([5]; 7th day after operation): 36.4 ± 5.6
- Vertical motion activity ([5]; 7th day after operation): 10.9 ± 3.2
- Exploration of holes ([5]; 14th day after operation): 3.0 ± 0.7
- Horizontal motion activity ([5]; 14th day after operation): 12.2 ± 2.8
- Total index ([5]; 14th day after operation): 22.1 ± 3.5
- Vertical motion activity ([5]; 14th day after operation): 6.9 ± 1.9
- Increase of total index of motion behavior compared to rats of the HS group ([5]; registered in 7 days): 2.7 times
- Latent time of entering into a dark chamber during training in the burrow reflex [6]: 30.6 ± 8.8
